Assay results: article PMC4138078, “Chemically Modified Peptide Scaffolds Target the CFTR-Associated Ligand PDZ Domain” (PLoS ONE, 2014)
Structures can show the parent of a compound that is named as a salt. Peptide text beside a SMILES is read from it. * marks the point of attachment. Benzoyl(4-Br) = O=C(c1ccc(Br)cc1)*; Benzoyl(4-F) = O=C(c1ccc(F)cc1)*; Tfa = O=C(C(F)(F)F)*

Tests used:
Type in all cases: binding
CAL PDZ domain (CALP) [1] = target: T1, CAL PDZ domain (CALP) (Homo sapiens, UniProt Q9HD26); assay: Fluorescence polarization (FP) competition/displacement assay; conditions: for binding affinity stronger than iCAL36: FP displacement
T1 construct: made in house
Method: FP competition experiments were performed as previously described, [17].
For illustrative purposes, a logistic curve-fit is shown, but K I values and fractional reporter occupancy values were determined by least-squares fitting of the complete binding equation.

CAL PDZ domain (CALP) [2] = target: T1, CAL PDZ domain (CALP); assay: Surface plasmon resonance (SPR), equilibrium analysis; conditions: SPR value relative to FP value
Method: SPR experiments were performed on a Biacore X100 Plus (GE Healthcare Life Sciences), with CALP covalently immobilized on a CM5 sensor chip. […] Sensorgrams were analyzed using the Biacore evaluation software. Experiments were performed in duplicate or triplicate (n≥2). A detailed description is provided in ref. [21].

CAL PDZ domain (CALP) [3] = target: T1, CAL PDZ domain (CALP); assay: Isothermal titration calorimetry (ITC); conditions: ITC value relative to FP value
Method: ITC experiments were performed and analyzed in a manner similar to that described previously, [20]. Titrations were performed with a Nano ITC 2G (TA Instruments). In brief, for a typical titration, 100–320 µM CALP was loaded into the 943 µL sample cell, and 2–3 mM peptide placed in a 250 µL injector syringe. For [drawing 8] , titrations were performed with polyhistidine-tagged CALP. Peptide concentrations were adjusted based on the amount of protein, so the final ratio of peptide to protein ranged between 3∶1–4∶1. Each titration included an initial 1 or 2 µL injection followed by 5 or 10 µL injections performed at 180 s intervals, for a total of 25–50 injections. The stirring speed was 250 rpm, and experimental temperature was 25°C. Thermograms were analyzed using NanoAnalyze software (TA Instruments). Details are described in ref. [21].

change in binding affinity compared to iCAL36 (CAL PDZ domain (CALP) [1]; head-to-head FP displacement assays)	fold-deviation of K D from SPR from the value obtained by FP (CAL PDZ domain (CALP) [2])	fold-deviation of K D from ITC from the value obtained by FP (CAL PDZ domain (CALP) [3])	Compound	binding affinity stronger than iCAL36 (CAL PDZ domain (CALP) [1])
no significant change	–	–	CC[C@H](C)[C@H](NC(=O)[C@@H](NC(=O)[C@H](CO)NC(=O)[C@@H](NC(=O)[C@@H]1CCCN1C(=O)[C@H](Cc1c[nH]c2ccccc12)NC(=O)[C@H](CCCNC(=N)N)NC(=O)[C@H](CO)NC(=O)[C@H](CC(N)=O)NC(=O)[C@H](C)NC(C)=O)[C@@H](C)O)[C@@H](C)CC)C(=O)O [Ac-iCAL36]	–
–	(2.0) fold	(1.5) fold	CC[C@H](C)[C@H](NC(=O)[C@@H](NC(=O)[C@H](CO)NC(=O)[C@@H](NC(=O)[C@H](CCCCNC(C)=O)NC(=O)[C@H](Cc1c[nH]c2ccccc12)NC(=O)[C@H](CCCNC(=N)N)NC(=O)[C@H](CO)NC(=O)[C@H](CC(N)=O)NC(=O)[C@H](C)N)[C@@H](C)O)[C@@H](C)CC)C(=O)O [Peptide C00003]	–
–	(0.5) fold	–	CC[C@H](C)[C@H](NC(=O)[C@@H](NC(=O)[C@H](CO)NC(=O)[C@@H](NC(=O)[C@@H]1CCCN1C(=O)[C@H](CCCCNC(C)=O)NC(=O)[C@H](CCCNC(=N)N)NC(=O)[C@H](CO)NC(=O)[C@H](CC(N)=O)NC(=O)[C@H](C)N)[C@@H](C)O)[C@@H](C)CC)C(=O)O [Peptide C00004]	–
–	(2.4) fold	(1.1) fold	CC[C@H](C)[C@H](NC(=O)[C@H](CCCCNC(=O)c1ccc(F)cc1)NC(=O)[C@H](CO)NC(=O)[C@@H](NC(=O)[C@@H]1CCCN1C(=O)[C@H](Cc1c[nH]c2ccccc12)NC(=O)[C@H](CCCNC(=N)N)NC(=O)[C@H](CO)NC(=O)[C@H](CC(N)=O)NC(=O)[C@H](C)N)[C@@H](C)O)C(=O)O [Peptide C00006] (H-ANSRWPTSK(Benzoyl(4-F))I-OH)	~2 fold
–	(1.6) fold	(2.4) fold	CC[C@H](C)[C@H](NC(=O)[C@H](CCCCNC(=O)C(F)(F)F)NC(=O)[C@H](CO)NC(=O)[C@@H](NC(=O)[C@@H]1CCCN1C(=O)[C@H](Cc1c[nH]c2ccccc12)NC(=O)[C@H](CCCNC(=N)N)NC(=O)[C@H](CO)NC(=O)[C@H](CC(N)=O)NC(=O)[C@H](C)N)[C@@H](C)O)C(=O)O [Peptide C00007] (H-ANSRWPTSK(Tfa)I-OH)	–
–	(0.7) fold	(0.5) fold	H-ANSRWPK(Ac)SII-OH [Peptide C00002]	–
–	(2.7) fold	(1.8) fold	H-ANSRWPTSK(Ac)I-OH [Peptide C00001]	–

Compound	change in binding affinity compared to iCAL36 (CAL PDZ domain (CALP) [1]; head-to-head FP displacement assays)	fold-deviation of K D from SPR from the value obtained by FP (CAL PDZ domain (CALP) [2])	fold-deviation of K D from ITC from the value obtained by FP (CAL PDZ domain (CALP) [3])	binding affinity stronger than iCAL36 (CAL PDZ domain (CALP) [1])
CC[C@H](C)[C@H](NC(=O)[C@H](CCCCNC(=O)c1ccc(Br)cc1)NC(=O)[C@H](CO)NC(=O)[C@@H](NC(=O)[C@@H]1CCCN1C(=O)[C@H](Cc1c[nH]c2ccccc12)NC(=O)[C@H](CCCNC(=N)N)NC(=O)[C@H](CO)NC(=O)[C@H](CC(N)=O)NC(=O)[C@H](C)N)[C@@H](C)O)C(=O)O [Peptide C00005] (H-ANSRWPTSK(Benzoyl(4-Br))I-OH)	–	(1.8) fold	(1.9) fold	~2 fold
